For test [1], the target named is T1, PMM2 (wt-PMM2) (Homo sapiens, UniProt O15305).
T1 construct: recombinant, vector Pet22b+, E. coli BL21(DE3), no tag mentioned; homodimer; DEAE-Sepharose and Superdex 75 purification
T1 sequence (O15305 2-246): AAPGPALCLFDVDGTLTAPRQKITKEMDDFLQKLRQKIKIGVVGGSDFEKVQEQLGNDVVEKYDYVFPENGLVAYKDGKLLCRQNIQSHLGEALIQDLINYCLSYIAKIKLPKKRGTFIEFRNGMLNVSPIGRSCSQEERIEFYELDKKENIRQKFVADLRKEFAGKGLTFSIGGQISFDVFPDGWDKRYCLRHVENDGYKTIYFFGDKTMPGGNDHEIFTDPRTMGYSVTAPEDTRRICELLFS
In words: thermal shift assay (Sypro Orange). Format: binding. The conditions noted are these: 0.5 mM ligand, without vanadate; Hepes 20 mM pH 7.5, Mg2+, NaCl, DTT.

In test [2] the target is T1, PMM2 (wt-PMM2). In words: […]-NMR phosphomannomutase assay. Format: biochemical. The conditions noted are these: inhibitor; βG16P 5 or 50 μM; 1 mM αM1P, activator αG16P 5 μM; Hepes pH 7.3, MgCl2 1 mM, 32 °C.

In publication PMC6747070, “β-Glucose-1,6-Bisphosphate Stabilizes Pathological Phophomannomutase2 Mutants In Vitro and Represents a Lead Compound to Develop Pharmacological Chaperones for the Most Common Disorder of Glycosylation, PMM2-CDG” (International Journal of Molecular Sciences, 2019) one finds dTm and inhibition data, which are given here for two compounds.

Regarding `O=P(O)(O)O[C@H]1O[C@H](CO)[C@@H](O)[C@H](O)[C@H]1O` [αG1P], the dTm entry at PMM2 (wt-PMM2) [1] was “αG1P is a stabilizer of PMM2 too”.

Regarding `O=P(O)(O)OC[C@H]1O[C@@H](OP(=O)(O)O)[C@H](O)[C@@H](O)[C@@H]1O` [βG16P], the inhibition entry at PMM2 (wt-PMM2) [2] is “βG16P is not an activator and show that it inhibits PMM2”.
